These are literature values, as cited in patent US20220192199A1, “METHOD FOR REMOVING BIOFILM” (KAO CORPORATION, priority 2019, published 2022).

For this data set the following is noted: primary dissociation constant.

On to `O=C(O)CCO` [3-hydoxypropionic acid], for which the pKa1 is given as 4.5.
As to `O=C(O)[C@H](O)[C@@H](O)[C@H](O)[C@H](O)CO` [gluconic acid], the pKa1 was 3.86.
